For test [1] the following is noted: cited from earlier work.
A further test deals with E. coli JW0013. It is filed as cell-based. Particulars: for MIC E. coli JW0013: JW0013, 1 h; for MIC in 20% M9 / MIC in 20% MHB / MIC in 60% M9 / MIC in 60% MHB / MIC in 100% M9 / MIC in 100% MHB: JW0013, 6 h.
The subject of the next test is E. coli O157:H7. It is filed as cell-based. As to conditions: O157:H7, 1 h.
For the next test, the system named is E. coli MC1061. Format: cell-based. As to conditions: MC1061, 1 h.
In a further test the test system is E. coli J2210. Format: cell-based. Particulars: J2210, 1 h.
A further test has as its system E. coli JJ2487. It is filed as cell-based. As to conditions: JJ2487, 1 h.
Another test has as its system Salmonella MH91989. Format: cell-based, Salmonella enterica serovar Enteritidis. As to conditions: 1 h.
For another test, the system named is Salmonella SL1344. It is filed as cell-based, Salmonella enterica serovar Typhimurium. As to conditions: 1 h.

No end group written: not given here.

For the substance VDKPPYLPRPRPPRrIYNr-NH2 [Onc112], the “antimicrobial activity compared to Onc18” value in test [1] was “improved”.
In the case of “VDKKPYLPRPRPPRRIYNR-NH2 [VDKKPYLPRPRPPRRIYNR-NH2]”, the “MIC E. coli JW0013” value in the test on E. coli JW0013 turned out to be 0.60 ± 0.14 µg/mL. The “MIC E. coli O157:H7” value in the test with E. coli O157:H7 is 2.40 ± 0.56 µg/mL. Moreover, the “MIC E. coli MC1061” value against E. coli MC1061 amounted to 0.30 ± 0.07 µg/mL. In addition, in the test with E. coli J2210, the “MIC E. coli J2210” value is 0.39 ± 0.18 µg/mL. For the same substance, the “MIC E. coli JJ2487” value with E. coli JJ2487 worked out at 0.60 ± 0.14 µg/mL. Moreover, the “MIC Salmonella MH91989” value in the test with Salmonella MH91989 came to 0.60 ± 0.14 µg/mL. Further, the “MIC Salmonella SL1344” value against Salmonella SL1344 amounted to 0.60 ± 0.14 µg/mL.
On to “VDKKPYKPRPRPPRRIYNR-NH2 [VDKKPYKPRPRPPRRIYNR-NH2]”, for which, in the test with E. coli JW0013, the “MIC E. coli JW0013” value was 0.30 ± 0.07 µg/mL, the “MIC in 20% M9” value came out at 0.30 ± 0.09 µg/mL, the “MIC in 20% MHB” value turned out to be 0.20 ± 0.09 µg/mL and the “MIC in 60% M9” value came to 1.57 ± 0.68 µg/mL. Also, in the test with E. coli JW0013, the “MIC in 60% MHB” value turned out to be 0.79 ± 0.35 µg/mL, the “MIC in 100% M9” value came out at 9.60 ± 2.00 µg/mL and the “MIC in 100% MHB” value stood at 2.40 ± 0.56 µg/mL. Besides, the “MIC E. coli O157:H7” value in the test with E. coli O157:H7 amounted to 1.57 ± 0.68 µg/mL. In addition, the “MIC E. coli MC1061” value in the test with E. coli MC1061 worked out at 0.15 ± 0.03 µg/mL. Also, in the test with E. coli J2210, the “MIC E. coli J2210” value worked out at 0.20 ± 0.09 µg/mL. For the same substance, the “MIC E. coli JJ2487” value against E. coli JJ2487 stood at 0.30 ± 0.07 µg/mL. For the same substance, the “MIC Salmonella MH91989” value with Salmonella MH91989 was found to be 0.42 ± 0.21 µg/mL. In addition, in the test with Salmonella SL1344, the “MIC Salmonella SL1344” value amounted to 0.42 ± 0.21 µg/mL.
On to “VDKKPYRPRPRPPRRIYNR-NH2 [VDKKPYRPRPRPPRRIYNR-NH2]”, for which, in the test on E. coli JW0013, the “MIC E. coli JW0013” value came to 0.39 ± 0.18 µg/mL, the “MIC in 20% M9” value worked out at 0.39 ± 0.18 µg/mL, the “MIC in 20% MHB” value is 0.20 ± 0.09 µg/mL and the “MIC in 60% M9” value was 1.20 ± 0.28 µg/mL. In the test with E. coli JW0013, the “MIC in 60% MHB” value was 0.60 ± 0.14 µg/mL, the “MIC in 100% M9” value amounted to 9.60 ± 2.00 µg/mL and the “MIC in 100% MHB” value was determined as 2.40 ± 0.56 µg/mL. In addition, the “MIC E. coli O157:H7” value in the test with E. coli O157:H7 came out at 1.57 ± 0.68 µg/mL. The “MIC E. coli MC1061” value with E. coli MC1061 came out at 0.15 ± 0.03 µg/mL. Moreover, in the test with E. coli J2210, the “MIC E. coli J2210” value is 0.30 ± 0.07 µg/mL. Besides, the “MIC E. coli JJ2487” value against E. coli JJ2487 was 0.30 ± 0.07 µg/mL. Also, in the test on Salmonella MH91989, the “MIC Salmonella MH91989” value worked out at 0.39 ± 0.18 µg/mL. In the test on Salmonella SL1344, the “MIC Salmonella SL1344” value is 0.39 ± 0.18 µg/mL.
VDKPPYLPRPRPPROIYNO-NH2 [Onc72]: the “antimicrobial activity compared to Onc18” value in test [1] is “improved”.
As to “VDKPPYRPRPRPPRRIYNR-NH2 [VDKPPYRPRPRPPRRIYNR-NH2]”, in the test with E. coli JW0013, the “MIC E. coli JW0013” value is 0.42 ± 0.21 µg/mL. Also, in the test on E. coli O157:H7, the “MIC E. coli O157:H7” value stood at 2.40 ± 0.56 µg/mL. Also, in the test with E. coli MC1061, the “MIC E. coli MC1061” value was found to be 0.20 ± 0.09 µg/mL. Further, the “MIC E. coli J2210” value with E. coli J2210 was determined as 0.39 ± 0.18 µg/mL. The “MIC E. coli JJ2487” value in the test with E. coli JJ2487 came to 0.39 ± 0.18 µg/mL. The “MIC Salmonella MH91989” value against Salmonella MH91989 came to 0.60 ± 0.14 µg/mL. For the same substance, in the test with Salmonella SL1344, the “MIC Salmonella SL1344” value is 0.42 ± 0.21 µg/mL.
“VDKRPYLPRPRPPRRIYNR-NH2 [VDKRPYLPRPRPPRRIYNR-NH2]”: the “MIC E. coli JW0013” value against E. coli JW0013 was determined as 0.83 ± 0.42 µg/mL. Also, in the test on E. coli O157:H7, the “MIC E. coli O157:H7” value came out at 2.40 ± 0.56 µg/mL. Besides, the “MIC E. coli MC1061” value against E. coli MC1061 worked out at 0.30 ± 0.07 µg/mL. Besides, the “MIC E. coli J2210” value in the test with E. coli J2210 came to 0.60 ± 0.14 µg/mL. Also, the “MIC E. coli JJ2487” value against E. coli JJ2487 stood at 0.39 ± 0.18 µg/mL. In addition, the “MIC Salmonella MH91989” value in the test with Salmonella MH91989 came to 0.60 ± 0.14 µg/mL. In addition, in the test on Salmonella SL1344, the “MIC Salmonella SL1344” value turned out to be 0.60 ± 0.14 µg/mL.
With “VDKPPYKPRPRPPRRIYNR-NH2 [VDKPPYKPRPRPPRRIYNR-NH2]”, the “MIC E. coli JW0013” value in the test with E. coli JW0013 is 0.60 ± 0.14 µg/mL. For the same substance, the “MIC E. coli O157:H7” value against E. coli O157:H7 was 2.40 ± 0.56 µg/mL. Also, the “MIC E. coli MC1061” value against E. coli MC1061 amounted to 0.15 ± 0.03 µg/mL. In addition, the “MIC E. coli J2210” value in the test on E. coli J2210 is 0.30 ± 0.07 µg/mL. The “MIC E. coli JJ2487” value in the test on E. coli JJ2487 was 0.79 ± 0.35 µg/mL. In addition, in the test on Salmonella MH91989, the “MIC Salmonella MH91989” value came to 0.60 ± 0.14 µg/mL. Further, in the test on Salmonella SL1344, the “MIC Salmonella SL1344” value came to 0.60 ± 0.14 µg/mL.
For the substance “VDKRPYRPRPRPPRRIYNR-NH2 [VDKRPYRPRPRPPRRIYNR-NH2]”, the “MIC E. coli JW0013” value in the test on E. coli JW0013 amounted to 0.39 ± 0.18 µg/mL. Besides, in the test with E. coli O157:H7, the “MIC E. coli O157:H7” value came out at 1.66 ± 0.82 µg/mL. The “MIC E. coli MC1061” value in the test with E. coli MC1061 stood at 0.15 ± 0.03 µg/mL. The “MIC E. coli J2210” value with E. coli J2210 came to 0.30 ± 0.07 µg/mL. Also, the “MIC E. coli JJ2487” value in the test with E. coli JJ2487 amounted to 0.42 ± 0.21 µg/mL. Besides, the “MIC Salmonella MH91989” value against Salmonella MH91989 stood at 0.42 ± 0.21 µg/mL. In the test on Salmonella SL1344, the “MIC Salmonella SL1344” value turned out to be 0.39 ± 0.18 µg/mL.
As to “VDKPPYLPRPRPPRRIYNR-NH2 [VDKPPYLPRPRPPRRIYNR-NH2, reference compound]”, in the test on E. coli JW0013, the “MIC E. coli JW0013” value is 0.83 ± 0.42 µg/mL, the “MIC in 20% M9” value amounted to 0.60 ± 0.14 µg/mL, the “MIC in 20% MHB” value amounted to 0.79 ± 0.35 µg/mL and the “MIC in 60% M9” value was determined as 1.20 ± 0.28 µg/mL. Moreover, in the test with E. coli JW0013, the “MIC in 60% MHB” value worked out at 1.20 ± 0.28 µg/mL, the “MIC in 100% M9” value came to 2.40 ± 0.56 µg/mL and the “MIC in 100% MHB” value was found to be 2.40 ± 0.56 µg/mL. Moreover, the “MIC E. coli O157:H7” value against E. coli O157:H7 was 3.14 ± 1.28 µg/mL. Besides, the “MIC E. coli MC1061” value against E. coli MC1061 was 0.30 ± 0.07 µg/mL. For the same substance, the “MIC E. coli J2210” value with E. coli J2210 was found to be 0.79 ± 0.35 µg/mL. For the same substance, in the test with E. coli JJ2487, the “MIC E. coli JJ2487” value was found to be 0.60 ± 0.14 µg/mL. Besides, the “MIC Salmonella MH91989” value against Salmonella MH91989 is 0.60 ± 0.14 µg/mL. Besides, the “MIC Salmonella SL1344” value against Salmonella SL1344 worked out at 0.60 ± 0.14 µg/mL.

(Values after publication PMC6519479 (Molecular systems design & engineering, 2018).)
